From paper PMC4833932, “Cytotoxicity and cell cycle arrest induced by andrographolide lead to programmed cell death of MDA-MB-231 breast cancer cell line” (Journal of Biomedical Science, 2016) come the findings set out here.

One assay concerns caspase-7. Put plainly: Caspase activity assay in MCF-7 cells. The class given is cell-based, human. The note with it: MCF-7, 0-80 μM, 24 h.
The test system of the next assay is MDA-MB-231. Put plainly: In vitro cytotoxicity (MTT) assay. The class given is cell-based, human. How it is done: (§1) The effect of andrographolide on cell viability was measured by MTT assay following the method by Mosmann. Briefly, the cells (1 × 10^5 cells per ml) were seeded in a 96 well micro titer plate (100 μl per well) with replications. Treatment was conducted for 24 and 48 h with different concentrations (0, 5, 7.5, 15, 30, 45, 60, 75 and 100 μM) of andrographolide. After incubation, 20 μl of 5 mg/ml MTT stock solution was added to each well and incubated for 4 h at 37 °C. The obtained formazan crystals were solubilized with DMSO and the absorbance was measured at 570 nm using a microplate reader (SpectraMax M5, Molecular Devices, USA). Cell viability (%) has been shown as a ratio of absorbance (A570) in treated cells to absorbance in control cells (0.1 % DMSO) (A570). The IC50 was calculated as the concentration of sample needed to reduce 50 % of the absorbance in comparison to the DMSO-treated control. Percent cell viability was calculated following the equation: Cellviability%=A570Sample/A570ControlDMSO×100

The test system of the next assay is caspase-9. Put plainly: Caspase activity assay (fluorometric, LEHD-AFC) in MDA-MB-231 cells. The assay is classed as cell-based, human. The note with it: 0-60 μM, 24 h. How it is done:
MDA-MB-231 cells (1 × 10^5 cells per ml) were incubated with different concentrations of andrographolide (0, 15, 30, 45 and 60 μM) for 24 h and then centrifuged to detect caspase-3 and caspase-9 activation using caspase fluoremetric protease assay kit following manufacturer’s instructions. Briefly, cells were lysed in RIPA buffer supplemented with protease inhibitor cocktail and 10 μl lysate were diluted with 10 μl substrate buffer (1:1) containing 100 μM each of fluorogenic substrate, DEVD-AFC and LEHD-AFC for caspase-3 and caspase-9 respectively, and was then incubated for 90 min at 37 °C. Reactions were stopped using 0.2 mM sodium phosphate buffer (pH 7.5) and fluorescence was quantified by a spectrofluorometer (excitation, 405 nm; emission, 505 nm). Experiment was also performed using MCF-7 cells.

Another assay concerns T-47D. Description: In vitro cytotoxicity (MTT) assay. The class given is cell-based. The note with it: Homo sapiens, T47D. How it is done: as §1
For assay [1], the system named is MCF-10A normal human breast epithelial immortalized cell line. Description: In vitro cytotoxicity (MTT) assay. The assay is classed as cell-based. The note with it: for IC50: Homo sapiens, MCF-10A, MTT. Here is the method:
as §1

The subject of the next assay is MCF-7. Description: In vitro cytotoxicity (MTT) assay. The assay is classed as cell-based. The note with it: Homo sapiens. Here is the method:
as §1

`C=C1CC[C@@H]2[C@](C)(CO)[C@H](O)CC[C@@]2(C)[C@@H]1C/C=C1/C(=O)OC[C@H]1O` [andrographolide]: the “caspase-7 (effector caspase) activation” value with caspase-7 is “activation in a dose-dependent manner”. The IC50 in the assay on MDA-MB-231 (Homo sapiens, MDA-MB-231, 24 h) was 52 µM; in the assay with MDA-MB-231 (Homo sapiens, MDA-MB-231, 48 h), 30 µM; in the assay with MDA-MB-231 (MDA-MB-231, 48 h), 30.3 µM; in the assay with T-47D (24 h), 118 µM; in the assay with T-47D (48 h) it was 72.6 µM; in assay [1] (24 h), 138 µM. The IC50 is 106 µM in assay [1] (48 h); 61.1 µM in the assay on MCF-7 (MCF7, MCF-7, 24 h); 36.9 µM with MCF-7 (MCF7, MCF-7, 48 h). In the assay on caspase-9, the “activation of caspase-9” value is “gradual dose-dependent activation”. In addition, the “IC50 at 48 h for MCF-10A higher than that for MDA-MB-231 cells” value in assay [1] (48 h, MCF-10A vs MDA-MB-231) was ~3.5 fold. In addition, the “treatment did not affect normal breast epithelial cells, MCF-10A” value in assay [1] (abstract, quantity not named (presumably viability)) is > 80%.
